Experiments:
[1] = test system: SR-BI; experiment: SR-BI up-regulation, luciferase reporter in SR-BI-LUC HepG2 cells; assay type: cell-based; settings: Homo sapiens, 18 h, maximum up-regulation of luciferase activity versus DMSO, read-out: SR-BI max
Experimental: (§1) Experiments were conducted to detect whether the compounds of the disclosure can pharmacologically up-regulate the expression of ABCA1 and SR-BI. Firstly, ABCA1P-LUC HepG2 cells or SR-BI-LUC HepG2 cells in logarithmic growth phase were digested, diluted in cell culture medium, and counted. Cells were seeded into 96-well plates at a density of 5×10^5/ml (100 μL of the single-cell suspension per well). After cells fully adhered (about 6 h), the medium containing 10% FBS was removed, and the cells were gently washed with PBS. Serum free MEM-EBSS medium (200 μL per test well) and 2 μL of the compounds to be tested (at a final concentration of 10 μg/mL) were added to each test well, and meanwhile, DMSO at a corresponding concentration was added to the control well. After 18-24 h, the medium was removed. Cell Luciferase activity was measured by a method as described in the Luciferase Assay System. By optimizing the final concentration of DMSO, the treatment time of the compounds on the cells and the number of cells seeded into each well during the screening, the final screening conditions were determined as follows: each well is seeded with 5×10^4 cells, DMSO is added at a final concentration of 1%, and the sample is treated for 18 h.
(§2) The ratio of change of luciferase activity is calculated with the following formula: Ratio of change (%)=A/B×100;
(§3) wherein A is the luciferase activity (RLU) measured after the compound to be tested is added, and B is the luciferase activity (RLU) measured after the blank control (DMSO) is added. The luciferase activity of cells in each well was measured, and the dose-effect relationship between the concentration of the compound and the ratio of change of the luciferase activity was determined to calculate the EC50.

[2] = test system: ABCA1; experiment: ABCA1 up-regulation, luciferase reporter in ABCA1P-LUC HepG2 cells; assay type: cell-based; settings: Homo sapiens, 18 h, maximum up-regulation fold of luciferase activity versus DMSO, read-out: ABCA1 max
Experimental: as §1, §2, §3

[3] = background statement; cited from earlier work
[4] = target: T1, LXRα (Homo sapiens, UniProt Q13133); experiment: Nuclear receptor reporter gene transient transfection (pBIND-hLXRs-LBD) in HepG2 cells, LXRα; assay type: cell-based; settings: for LXRα max: HepG2 cells, reporter gene, 18-24 h; for LXRα agonist activity: result in words
T1 construct: expressed in transfected cells; host or cells: HepG2
T1 sequence (Q13133 209-447 limits assumed): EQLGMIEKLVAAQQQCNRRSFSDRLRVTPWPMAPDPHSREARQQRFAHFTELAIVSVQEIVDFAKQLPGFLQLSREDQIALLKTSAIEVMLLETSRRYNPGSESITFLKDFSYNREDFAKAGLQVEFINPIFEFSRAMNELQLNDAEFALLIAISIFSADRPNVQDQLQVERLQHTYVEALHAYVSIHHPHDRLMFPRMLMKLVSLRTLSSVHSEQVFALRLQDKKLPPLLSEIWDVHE
Experimental: (§4) HepG2 cells in logarithmic growth phase were digested, seeded into the white/clear 96-well plate at a density of 5×10^4 cells/well/100 μL until the cells grew to about 90% confluence and in good condition. 0.5 μL liposome (Lipofectamine® 2000) diluted with blank medium to 25 μL per well and incubated at room temperature for 5 min. The corresponding plasmids DNA (nuclear receptor plasmid:Gal4=1:10) were diluted in blank DMEM medium to 25 μL/well (mixing of two plasmids), then mixed evenly with the diluted liposome, and incubated for 20 min at 37° C. The DNA-liposome complex (50 μL per well) was added with the DMEM complete medium (100 μL per well) and mixed thoroughly to obtain a DNA-liposome complex cell culture. The cell medium was discarded, and replaced with the DNA-liposome complex cell culture (150 μL/well) (37° C., 5% CO2). After 6 h, the DNA-liposome complex cell culture medium was discarded, and 200 μL serum-free DMEM medium containing the compound at an appropriate concentration was added to each test well, and cultured for 18-24 h. The cell Luciferase activity was measured by the method as described in the Luciferase Assay System.

[5] = target: T2, LXRβ (Homo sapiens, UniProt P55055); experiment: Nuclear receptor reporter gene transient transfection (pBIND-hLXRs-LBD) in HepG2 cells, LXRβ; assay type: cell-based; settings: for LXRβ max: HepG2 cells, reporter gene, 18-24 h; for LXRβ agonist activity: result in words
T2 construct: expressed in transfected cells; host or cells: HepG2
T2 sequence (P55055 222-460 limits assumed): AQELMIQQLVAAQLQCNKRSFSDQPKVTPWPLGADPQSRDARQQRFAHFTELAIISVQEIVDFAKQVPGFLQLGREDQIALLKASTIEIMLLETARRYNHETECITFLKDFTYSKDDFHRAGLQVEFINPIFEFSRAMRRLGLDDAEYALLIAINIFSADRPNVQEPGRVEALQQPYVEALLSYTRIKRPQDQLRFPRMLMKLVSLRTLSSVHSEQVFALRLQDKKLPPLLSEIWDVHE
Experimental: as §4

| LXRα max [4] | LXRα agonist activity [4] | LXRβ max [5] | LXRβ agonist activity [5] | SMILES | maximal fold induction [1] | maximal fold induction [2] | oral bioavailability [3] |
| --- | --- | --- | --- | --- | --- | --- | --- |
| – | – | – | – | O=c1c2ccccc2nc2n1CCc1c-2[nH]c2c(Cl)cccc12 [TR10, 12-chloro-8,13-dihydroindolo[2′,3′:3,4]pyrido[2,1-b]quinazolin-5(7H)-one] | 1.72 | 1.43 | – |
| – | – | – | – | O=c1c2ccccc2nc2n1CCc1c-2[nH]c2ccccc12 [RUT, Rutaecarpine, reference compound] | 2.12 | 2.09 | very low |
| – | – | – | – | Cc1cccc2c3c([nH]c12)-c1nc2ncccc2c(=O)n1CC3 [TR12, 12-methyl-8,13-dihydropyrido[2″,3″: 4′,5′]pyrimido[1′,2′:1,2]pyrido[3,4-b]indol-5(7H)-one] | 1.44 | 1.51 | – |
| – | – | – | – | c1ccc2c(c1)CN1CCc3c([nH]c4ccccc34)C1N2 (stereo not shown) [TR2, 5,7,8,13,13b,14-hexahydroindolo[2′,3′:3,4]pyrido[2,1-b]quinazoline] | 1.76 | 1.66 | – |
| – | – | – | – | O=c1c2cccnc2nc2n1CCc1c-2[nH]c2c(F)cccc12 [TR13, 12-fluoro-8,13-dihydropyrido[2″,3″:4′,5′]pyrimido[1′,2′:1,2]pyrido[3,4-b]indol-5(7H)-one] | 1.72 | 1.54 | – |
| – | – | – | – | O=C1c2ccccc2OC2c3[nH]c4ccccc4c3CCN12 (stereo not shown) [TY4, 7,8,13,13b-tetrahydro-5H-benzo[5′,6′][1,3]oxazino[3′,2′:1,2]pyrido[3,4-13]indol-5-one] | 1.22 | 1.5 | – |
| – | – | – | – | O=c1c2cccnc2nc2n1CCc1c-2[nH]c2ccc(Cl)cc12 [TR14, 10-chloro-8,13-dihydropyrido[2″,3″: 4′,5′]pyrimido[1′,2′:1,2]pyrido[3,4-b]indol-5(7H)-one] | 1.57 | 1.48 | – |
| – | – | – | – | O=c1c2ccccc2cc2n1CCc1c-2[nH]c2ccccc12 [TY3, 8,13-dihydroindolo[2′,3′:3,4]pyrido[1,2-b]isoquinolin-5(7H)-one] | 1.41 | 1.97 | – |
| 1.84 | showed agonist activity | 1.88 | showed agonist activity | O=c1c2ccccc2nc2c3[nH]c4ccccc4c3ccn12 [TR4, indolo[2′,3′:3,4]pyrido[2,1-b]quinazolin-5(13H)-one] | 1.74 | 1.84 | – |
| 2.03 | showed agonist activity | 1.69 | showed agonist activity | O=C1c2ccccc2N(C(=O)C(F)(F)F)C2c3[nH]c4ccccc4c3CCN12 (stereo not shown) [TR6, 14-(2,2,2-trifluoroacetyl)-8,13,13b,14-tetrahydroindolo[2′,3′:3,4]pyrido[2,1-b]quinazolin-5(7H)-one] | 1.56 | 1.96 | – |
| – | – | – | – | O=c1c2cccnc2nc2n1CCc1c-2[nH]c2c(Cl)cccc12 [TR11, 12-chloro-8,13-dihydropyrido[2″,3″:4′,5′]pyrimido[1′,2′:1,2]pyrido[3,4-b]indol-5(7H)-one] | 1.68 | 1.57 | – |
